Reference: US20060234276A1, “Methods of treatment of type 2 diabetes” (priority 1998, published 2006)
Peptide text beside a SMILES is read from it.

How the values were obtained:
islets = assay: Insulin content of islets after 48 h inhibitor exposure; assay type: cell-based, mouse; conditions: 48 hours treatment
isolated β-cells = assay: Membrane capacitance recordings (exocytosis) in isolated β-cells; assay type: cell-based, mouse
Method: (§1) Isolation of pancreatic β-cells. Single β-cells were obtained from isolated islets dispersed by gentle trituration (120 strokes through a 200 μl pipette tip) in Ca^2+ and Mg^2+-free PBS containing […]. Cells were plated on glass coverslips and maintained in culture in RPMI containing 11.6 mM glucose for 48-96 hr.
Capacitance recordings. Capacitance measurements were made with the phase-tracking technique in which a 60 mV peak-to-peak sine wave was superimposed on a holding potential of −80 mV as previously described. Conductance and capacitance values were continuously generated and recorded. The whole-cell capacitance was canceled with the slow capacitance compensation; unbalancing the slow capacitance compensation by 100 fF provided the capacitance calibration signal used to calculate changes in membrane capacitance. The sinusoidal voltage template was interrupted to deliver depolarizations to a cell. Beta cells were stimulated with a train of ten step depolarizations to +20 mV (HP=−80 mV). Each step depolarization lasted 150 ms and was separated by 400 ms interpulse duration. Capacitance measurements were carried out in the perforated whole-cell configuration. The data were collected at a 500 μsec sampling rate and filtered at 5 kHz. Recordings with series resistance >20 MΩ were discarded. Series resistance compensation was applied in all recordings.
The recording solution for the capacitance measurements contained (in mM): 130 NaCl, 2 glucose, 10 Na-HEPES, 1 MgCl2, 2 KCl, and 5 CaCl2, pH 7.3 with NaOH. The pipette solution contained (in mM): 135 Cs-glutamate, 10 Na-HEPES, 9.5 NaCl, 0.5 TEACl, and 0.5 CaCl2, pH7.3 with CsOH. The pipettes were backfilled with an identical solution to which amphotericin B (final concentration of 0.5 mg/ml) was added and then sonicated. The amphotericin B stock solution (125 mg/ml) was kept frozen at −20° C. and used for one week. ALLM pre-treatment was as described above (see patch-clamp electrophysiology section). All electrophysiological recordings were carried out at room temperature (22-24° C.)

β-cells = assay: Whole-cell patch-clamp calcium currents in β-cells; assay type: cell-based, mouse
Method: as §1
Patch-clamp electrophysiology. Calcium current measurements were obtained in the whole-cell patch-clamp configuration. Calcium currents were activated by step depolarizations to either +10 or +20 mV for either 20 ms or 100 ms, from HP=−80 mV. All current records are corrected for leak and capacitance. The data was filtered at 2 kHz and then sampled every 100 μs. Pipette resistances were 1.5-2.5 MΩ. Series resistance was partially compensated (˜80%) using the compensation circuit of the Axopatch-1C amplifier.
Cells were incubated for 3-4 hr in RPMI at 37° C. in either 0.1% DMSO (control) or 100 μM ALLM and then transferred for a further 1-2 hr to KRB containing similar concentrations of DMSO or ALLM. For recording, cells were bathed in a solution containing (in mM): 145 NaCl, 2 KCl, 1 MgCl2, 2 glucose, 10 HEPES, 10 CaCl2, pH 7.3 (adjusted with NaOH) and either DMSO or ALLM. […]

mouse pancreatic islets = assay: Static incubation of isolated pancreatic islets, insulin secretion; assay type: cell-based
Method: Static incubation of isolated pancreatic islets. Isolation of mouse pancreatic islets was accomplished using collagenase digestion as previously described (Pontoglio et al., 1998). […] Triplicate groups of 5 islets were then incubated in borosilicate tubes containing 1 ml of KRB with the same concentration of inhibitor and various insulin secretagogues for one hour in a moving water bath at 37° C. The reaction was stopped by placing the tubes on ice and an aliquot of the buffer was removed for measurement of insulin levels. Control studies, in which the incubation mixture contained vehicle (0.1% DMSO) only, were performed using aliquots of the same batch of islets
Assay methods. Insulin concentrations were measured by a double antibody radioimmunoassay using a rat insulin standard. The intra-assay coefficient of variation for this technique is 7%. All samples were assayed in duplicate.

soleus muscle strips = assay: Glycogen synthesis rates in skeletal muscle; assay type: cell-based, rat; conditions: 100 μM ALLM or 200 μM E-64-d
From the text: Glycogen synthesis rates in skeletal muscle.

rat adipocytes = assay: 2-Deoxyglucose uptake into adipocytes; assay type: cell-based; conditions: 100 μM ALLM or 200 μM E-64-d
Method: Adipocytes were isolated from epididymal fat pads of 3 month old male Wistar rats as described previously (Robdell, 1964) with the following modification: fat pads were minced to 1-2 mm pieces and incubated for ˜25 min at 37° C. with collagenase I (1 mg/ml, Worthington Biochemicals, Lakewood, N.J.) in KRB containing 10 mM Hepes (pH 7.4), 0.2% BSA and 2 mM sodium pyruvate. The cell suspension was filtered through a nylon mesh (134 μM, Spectrum Lab., Laguna Hills, Calif.) washed three times by floating and allowed to rest for 45 min in the KRB. […] Then another 50 μl of KRB containing 5 mM 2-DOG (final concentration 1 mM), 0.5 μCi of 2-deoxy-[2,6-^3H]glucose was added and cells were incubated for a further 5 min at 25° C. The transport was stopped by adding cytochalasin B (final concentration 50 μM) and cells were spun through 250 μl of dinonyl phthalate oil (Fisher Scientific, Pittsburgh, Pa.). Cells were then transferred to scintillation vials for counting.

CSCC[C@@H](C=O)NC(=O)[C@H](CC(C)C)NC(=O)[C@H](CC(C)C)NC(C)=O [ALLM, N-Ac-Leu-Leu-methioninal] (Ac-Leu-Leu-Met-aldehyde)
insulin content in islets vs control islets (islets): comparable
rates of exocytosis in β-cells (isolated β-cells; 4 days culture with inhibitor): significantly lower rates of exocytosis
change in membrane capacitance elicited by train of depolarizations (isolated β-cells; ALLM 100 μM pre-treatment, vs control cells): much larger average changes in membrane capacitance
average peak calcium current density (β-cells; ALLM 100 μM pre-treated cells, n=15): 36.7±3.9 pA/pF
whole-cell calcium currents (β-cells; ALLM 100 μM pre-treated vs control cells): similar
insulin secretory response to 30 mM KCl (mouse pancreatic islets; 100 μM ALLM, 4 hr, 2 mM glucose): did not however significantly increase
insulin secretory response to 100 μM carbachol (CCh) (mouse pancreatic islets; 100 μM ALLM, 4 hr, 8 mM glucose): did not however significantly increase
increase of insulin secretory response to 50 nM GLP-1 (mouse pancreatic islets; 100 μM ALLM, 8 mM glucose): 1.55±0.2 fold
insulin secretory response to 20 mM glucose after recovery (mouse pancreatic islets; 48-h treatment, then 2 days recovery without inhibitor): essentially normal insulin secretory response
effect on insulin secretion at 2 mM glucose (mouse pancreatic islets; 4 hr exposure, ALLM 250 μM, E-64-d 200 μM, 2 mM glucose): not observed
increase of insulin secretory response to 20 mM glucose (mouse pancreatic islets; 4 hr exposure, ALLM 250 μM, E-64-d 200 μM, 20 mM glucose, mean±SEM): 1.97±0.3 fold
inhibition of 20 mM glucose-stimulated insulin secretion (mouse pancreatic islets; 48 h, 100 μM ALLM (so in the source), 50 μM MDL28170): 88±9%
basal insulin secretion (2 mM glucose) vs control-treated islets (mouse pancreatic islets; 48 hours exposure): no significant difference
insulin secretory response to carbachol (mouse pancreatic islets; 48 h treated islets): attenuated
insulin secretory response to glyceraldehyde (mouse pancreatic islets; 48 h treated islets): responded normally
insulin secretory response to mastoparan (mouse pancreatic islets; 48 h treated islets): attenuated
insulin-secretory response to keto-isocaproic acid (KIC) (mouse pancreatic islets; 48 h treated islets): decreased
insulin secretory responses to glucose (summary statement of Example 8) (mouse pancreatic islets; isolated mouse islets, introductory summary, no conditions given): reduces insulin secretory responses
concentration at which inhibition of insulin secretion was achieved (dose response) (mouse pancreatic islets; long-term exposure, glucose stimulated insulin secretion): 25 µM
magnitude of insulin-induced increase in muscle glycogen synthesis (soleus muscle strips; insulin 6 nM): 0.13±0.03 nmol glucose/mg/hr
rate of muscle glycogen synthesis with insulin (soleus muscle strips; insulin 6 nM): 0.40±0.05 nmol glucose/mg/hr
rate of muscle glycogen synthesis without insulin (soleus muscle strips; no insulin): 0.27±0.03 nmol glucose/mg/hr
2-DOG uptake into adipocytes with insulin (rat adipocytes; insulin 12 nmol/L): 751±71 pmol/2×10^5 cells/5 min
2-DOG uptake into adipocytes without insulin (rat adipocytes; no insulin): 598±102 pmol/2×10^5 cells/5 min
